Results published in paper PMC8112869, “Therapeutic inhibition of keratinocyte TRPV3 sensory channel by local anesthetic dyclonine” (eLife, 2021).

Target: T1, endogenous TRPV3 channels in mouse keratinocytes (Mus musculus, UniProt Q8K424)
T1 construct: endogenous in cells; host or cells: primary epidermal keratinocytes of newborn WT C57B/6 mice
T1 sequence (Q8K424 1-791): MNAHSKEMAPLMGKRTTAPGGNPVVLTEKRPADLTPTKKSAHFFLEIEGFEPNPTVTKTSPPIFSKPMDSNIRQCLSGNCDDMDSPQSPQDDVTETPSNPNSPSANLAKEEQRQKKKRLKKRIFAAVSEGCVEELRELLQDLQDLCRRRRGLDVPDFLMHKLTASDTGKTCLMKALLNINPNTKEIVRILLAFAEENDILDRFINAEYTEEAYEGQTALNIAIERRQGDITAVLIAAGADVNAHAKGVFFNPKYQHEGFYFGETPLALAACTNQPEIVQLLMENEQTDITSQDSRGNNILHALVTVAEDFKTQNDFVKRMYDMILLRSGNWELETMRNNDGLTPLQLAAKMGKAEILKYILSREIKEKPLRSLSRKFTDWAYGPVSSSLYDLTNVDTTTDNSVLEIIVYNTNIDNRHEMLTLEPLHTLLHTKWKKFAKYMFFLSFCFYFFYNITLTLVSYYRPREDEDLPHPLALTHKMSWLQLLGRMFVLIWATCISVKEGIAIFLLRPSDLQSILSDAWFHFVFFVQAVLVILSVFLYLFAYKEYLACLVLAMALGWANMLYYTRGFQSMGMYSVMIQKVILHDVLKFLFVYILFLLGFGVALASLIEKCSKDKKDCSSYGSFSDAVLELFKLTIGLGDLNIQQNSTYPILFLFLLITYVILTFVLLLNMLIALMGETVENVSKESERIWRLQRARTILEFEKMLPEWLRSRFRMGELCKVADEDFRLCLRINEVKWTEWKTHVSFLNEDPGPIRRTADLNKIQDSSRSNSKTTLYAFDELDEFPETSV
Assay: Whole-cell recording of 2-APB-evoked TRPV3 currents in primary mouse epidermal keratinocytes
Type: cell-based
Conditions: for TRPV3 currents, of control level: 300 μM 2-APB, –60 mV
Protocol: The animal protocol used in this study was approved by the Institutional Animal Care and Use Committee of Wuhan University. Primary mouse keratinocytes were prepared according to the method previously described ([Luo et al., 2012]; [Pirrone et al., 2005]). Briefly, newborn WT C57B/6 mice (postnatal days 1–3) were deeply anaesthetized and decapitated and then soaked in 10% povidone-iodine, 70% ethanol, and phosphate-buffered saline (PBS) for 5 min, respectively. The skin on the back was removed and rinsed with pre-cold sterile PBS in a 100 mm Petri dish and transferred into a 2 ml tube filled with pre-cold digestion buffer containing 4 mg/ml dispase II and incubated overnight at 4°C. After treatment with dispase II for 12–18 hr, the epidermis was gently peeled off from dermis and collected. Keratinocytes were dispersed by gentle scraping and flushing with KC growth medium (Invitrogen). The resulting suspension of single cells was collected by centrifuge, and cells were seeded onto coverslips pre-coated with poly-L-lysine and maintained in complete keratinocyte serum-free growth medium (Invitrogen). Cell culture medium was refreshed every two days. Patch-clamp recordings were carried out 48 hr after plating.
Conventional whole-cell and excised patch-clamp recording methods were used. For the recombinant expressing system, green fluorescent EGFP was used as a surface marker for gene expression. Recording pipettes were pulled from borosilicate glass capillaries (World Precision Instruments) and fire-polished to a resistance between 2 and 4 MΩ when filled with internal solution containing (in mM) 140 CsCl, 2.0 MgCl2, 5 EGTA, and 10 HEPES, pH 7.4 (adjusted with CsOH). Bath solution contained (in mM): 140 NaCl, 5 KCl, 3 EGTA, and 10 HEPES, pH 7.4 adjusted with NaOH. For recordings in keratinocytes, the bath saline consisted of (in mM) 140 NaCl, 5 KCl, 2 MgCl2, 2 CaCl2, 10 glucoses, and 10 HEPES, pH 7.4 adjusted with NaOH, and the pipette solution contained (in mM) 140 CsCl, 5 EGTA, and 10 HEPES, pH 7.3 adjusted with CsOH. For single-channel recordings, the pipette solution and bath solution were symmetrical and contained (in mM) 140 NaCl, 5 KCl, 3 EGTA, and 10 HEPES, pH 7.4. Isolated cells were voltage clamped and held at –60 mV using an EPC10 amplifier with the Patchmaster software (HEKAElectronics, Lambrecht, Germany). For a subset of recordings, currents were amplified using an Axopatch 200B amplifier (Molecular Devices, Sunnyvale, CA) and recorded through a BNC-2090/MIO acquisition system (National Instruments, Austin, TX) using QStudio developed by Dr. Feng Qin at State University of New York at Buffalo. […] As determined by the conductance tests, the solution around a patch under study was fully controlled by the application of a flow rate of 100 μl/min or greater. […]

- TRPV3 currents, of control level (5 μM dyclonine): 52% ± 7%
- TRPV3 currents, of control level (30 μM dyclonine): 13% ± 0.01%
- IC50 (300 μM 2-APB-evoked, read-out: IC50 on TRPV3 currents in cultured keratinocytes): 5.2 ± 0.71 µM
- Hill coefficient nH (keratinocytes): 2.4 ± 0.75
SMILES: CCCCOc1ccc(C(=O)CCN2CCCCC2)cc1 [dyclonine]
